Reference: PMC9266797 (2022)

How the values were obtained:
[1] = test system: poly dAdT–poly dAdT (DNA, polymer) AT; experiment: DAPI displacement by CD (ICD at 375 nm); details: Na+ (sodium cacodylate, I = 0.05 M), pH 7.0, DAPI displaced; for IDA50%: ratio [DAPI]/[compound], range printed for 6 and 7 together
[2] = test system: poly A–poly U (RNA, polymer) A/U; experiment: UV melting at 260 nm; details: Na+ (sodium cacodylate, I = 0.05 M); pH 7.0; RNA 25 µM, r = 0.25; no Cu2+; per base
[3] = test system: poly dAdT–poly dAdT (DNA, polymer) AT; experiment: CD (induced band at 375 nm); details: Na+ (sodium cacodylate, I = 0.05 M); pH 7.0; DNA 20 µM, r[DAPI]/[DNA] = 0.6
[4] = test system: poly A–poly U (RNA, polymer) A/U; experiment: fluorimetric titration, Scatchard fit; details: Na+ (sodium cacodylate, I = 0.05 M), n fixed at 0.2 per nucleobase, per base
[5] = test system: poly dAdT–poly dAdT (DNA, polymer) AT; experiment: UV melting at 260 nm; details: Na+ (sodium cacodylate, I = 0.05 M); pH 7.0; DNA 25 µM; no Cu2+; per base

| binding ([1]; very weakly) | ∆Tm [2] [°C] | binding [3] | IDA50% [1] | log Ks ([4]; pH 7.0, 0.04% DMSO, 1 µM compound) | ∆Tm [5] [°C] | log Ks ([4]; pH 7.0) | Structure (SMILES) |
| --- | --- | --- | --- | --- | --- | --- | --- |
| weak | 0 ± 0.5 | – | – | – | – | – | COC(=O)[C@H](Cc1c[nH]c2ccccc12)NC(=O)C(Cc1cn(COC(=O)C(C)(C)C)nn1)NC(=O)[C@@H](N)Cc1c[nH]c2ccccc12 (stereo partly shown) |
| – | – | yes | – | – | – | – | N=C(N)c1ccc(-c2cc3ccc(C(=N)N)cc3[nH]2)cc1 |
| – | 0 ± 0.5 | – | 0.02–0.01 | 6.8 | 0 ± 0.5 | – | COC(=O)[C@H](Cc1c[nH]c2ccccc12)NC(=O)C(Cc1cn(COC(=O)C(C)(C)C)nn1)NC(=O)CCCc1ccc2ccc3cccc4ccc1c2c34 (stereo partly shown) |
| – | 0 ± 0.5 | – | 0.02–0.01 | – | – | 6.6 | COC(=O)[C@H](Cc1c[nH]c2ccccc12)NC(=O)C(Cc1cn(COC(=O)C(C)(C)C)nn1)NC(=O)c1ccc2ccc3cccc4ccc1c2c34 (stereo partly shown) |
